Measured values published in publication PMC9030254, “Target Hopping from Protein Kinases to PXR: Identification of Small-Molecule Protein Kinase Inhibitors as Selective Modulators of Pregnane X Receptor from TüKIC Library” (Cells, 2022).

Experiments:
Experiment in all cases: Kinase profiling
Format in all cases: biochemical
[1] = target: T1, CDK4/CycD3 (Homo sapiens, UniProt P11802)
T1 construct: purchased ProQinase (Freiburg, Germany)
Method: (§1) The analysis was performed by ProQinase (Freiburg, Germany).

[2] = target: T2, CDK6/CycD2 (Homo sapiens, UniProt Q00534)
T2 construct: purchased ProQinase (Freiburg, Germany)
Method: as §1

[3] = target: T3, CDK9/CycK (Homo sapiens, UniProt P50750)
T3 construct: purchased ProQinase (Freiburg, Germany)
Method: as §1

[4] = target: T4, ITK (Homo sapiens, UniProt Q08881)
T4 construct: purchased ProQinase (Freiburg, Germany)
T4 sequence (Q08881 1-620): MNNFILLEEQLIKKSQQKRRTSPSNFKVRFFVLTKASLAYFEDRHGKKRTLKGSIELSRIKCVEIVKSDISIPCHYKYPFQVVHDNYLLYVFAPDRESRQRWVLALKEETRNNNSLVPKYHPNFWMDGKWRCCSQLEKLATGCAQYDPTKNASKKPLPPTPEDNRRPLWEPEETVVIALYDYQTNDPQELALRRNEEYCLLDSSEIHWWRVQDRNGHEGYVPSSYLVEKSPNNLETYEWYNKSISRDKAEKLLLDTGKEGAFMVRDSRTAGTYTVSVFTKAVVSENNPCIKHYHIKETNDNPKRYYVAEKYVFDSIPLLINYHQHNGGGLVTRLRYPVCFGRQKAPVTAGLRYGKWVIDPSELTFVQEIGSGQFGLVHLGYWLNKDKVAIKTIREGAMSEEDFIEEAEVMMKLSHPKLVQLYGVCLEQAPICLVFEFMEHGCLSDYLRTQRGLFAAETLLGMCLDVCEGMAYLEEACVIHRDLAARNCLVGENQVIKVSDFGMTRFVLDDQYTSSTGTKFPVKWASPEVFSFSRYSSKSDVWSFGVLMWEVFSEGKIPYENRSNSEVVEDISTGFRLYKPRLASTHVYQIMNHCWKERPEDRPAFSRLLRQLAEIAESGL
Method: as §1

[5] = target: T5, MAP3K11 (Homo sapiens, UniProt Q16584)
T5 construct: purchased ProQinase (Freiburg, Germany)
Method: as §1

[6] = target: T6, MAPKAPK2 (Homo sapiens, UniProt P49137)
T6 construct: purchased ProQinase (Freiburg, Germany)
Method: as §1

[7] = target: T7, MARK3 (Homo sapiens, UniProt P27448)
T7 construct: purchased ProQinase (Freiburg, Germany)
Method: as §1

[8] = target: T8, MINK1 (Homo sapiens, UniProt Q8N4C8)
T8 construct: purchased ProQinase (Freiburg, Germany)
Method: as §1

[9] = target: T9, PKCnu (Homo sapiens, UniProt O94806)
T9 construct: purchased ProQinase (Freiburg, Germany)
T9 sequence (O94806 1-890): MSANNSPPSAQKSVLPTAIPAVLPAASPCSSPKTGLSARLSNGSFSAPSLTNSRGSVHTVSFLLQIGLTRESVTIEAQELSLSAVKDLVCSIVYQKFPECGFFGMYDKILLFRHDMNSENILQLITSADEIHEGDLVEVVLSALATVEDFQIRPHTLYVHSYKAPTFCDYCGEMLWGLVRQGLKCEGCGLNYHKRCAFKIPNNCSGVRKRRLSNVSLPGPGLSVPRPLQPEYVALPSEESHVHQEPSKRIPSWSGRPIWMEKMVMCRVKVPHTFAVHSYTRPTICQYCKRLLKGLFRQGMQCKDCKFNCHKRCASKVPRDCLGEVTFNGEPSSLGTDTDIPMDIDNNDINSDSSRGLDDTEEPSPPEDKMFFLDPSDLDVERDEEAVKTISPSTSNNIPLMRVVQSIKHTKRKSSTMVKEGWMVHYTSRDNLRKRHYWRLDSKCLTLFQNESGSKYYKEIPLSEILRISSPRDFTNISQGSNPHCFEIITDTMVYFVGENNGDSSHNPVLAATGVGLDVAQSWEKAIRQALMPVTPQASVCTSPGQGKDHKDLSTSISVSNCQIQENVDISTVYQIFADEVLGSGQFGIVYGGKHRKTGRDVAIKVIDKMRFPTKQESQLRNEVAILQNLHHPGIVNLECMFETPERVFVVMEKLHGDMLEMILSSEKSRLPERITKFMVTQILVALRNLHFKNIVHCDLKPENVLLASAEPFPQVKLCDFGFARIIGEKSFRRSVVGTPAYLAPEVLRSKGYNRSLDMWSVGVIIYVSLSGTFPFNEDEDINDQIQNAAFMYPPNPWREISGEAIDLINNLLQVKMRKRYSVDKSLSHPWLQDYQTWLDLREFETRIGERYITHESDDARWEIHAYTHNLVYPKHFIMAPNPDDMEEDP
Method: as §1

[10] = target: T10, PRK2 (Homo sapiens, UniProt Q16513)
T10 construct: purchased ProQinase (Freiburg, Germany)
Method: as §1

[11] = target: T11, RET (Homo sapiens, UniProt P07949)
T11 construct: purchased ProQinase (Freiburg, Germany)
Method: as §1

[12] = target: T12, SGK3 (Homo sapiens, UniProt Q96BR1)
T12 construct: purchased ProQinase (Freiburg, Germany)
T12 sequence (Q96BR1 1-496): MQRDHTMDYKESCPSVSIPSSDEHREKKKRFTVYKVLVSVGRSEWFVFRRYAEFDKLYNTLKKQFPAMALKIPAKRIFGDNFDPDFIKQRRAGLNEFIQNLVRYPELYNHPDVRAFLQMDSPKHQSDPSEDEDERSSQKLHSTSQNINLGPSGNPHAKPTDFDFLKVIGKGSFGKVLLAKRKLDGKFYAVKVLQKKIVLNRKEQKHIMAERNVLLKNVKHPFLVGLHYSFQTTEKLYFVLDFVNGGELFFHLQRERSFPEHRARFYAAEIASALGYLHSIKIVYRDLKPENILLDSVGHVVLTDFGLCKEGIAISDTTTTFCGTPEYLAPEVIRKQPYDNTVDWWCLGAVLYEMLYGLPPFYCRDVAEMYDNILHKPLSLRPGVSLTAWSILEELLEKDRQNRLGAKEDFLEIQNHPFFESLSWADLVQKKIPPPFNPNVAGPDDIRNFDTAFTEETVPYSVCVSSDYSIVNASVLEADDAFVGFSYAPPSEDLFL
Method: as §1

[13] = target: T13, STK25 (Homo sapiens, UniProt O00506)
T13 construct: purchased ProQinase (Freiburg, Germany)
Method: as §1

[14] = target: T14, ZAK (Homo sapiens, UniProt Q9NYL2)
T14 construct: purchased ProQinase (Freiburg, Germany)
Method: as §1

T2 sequence (Q00534 whole entry): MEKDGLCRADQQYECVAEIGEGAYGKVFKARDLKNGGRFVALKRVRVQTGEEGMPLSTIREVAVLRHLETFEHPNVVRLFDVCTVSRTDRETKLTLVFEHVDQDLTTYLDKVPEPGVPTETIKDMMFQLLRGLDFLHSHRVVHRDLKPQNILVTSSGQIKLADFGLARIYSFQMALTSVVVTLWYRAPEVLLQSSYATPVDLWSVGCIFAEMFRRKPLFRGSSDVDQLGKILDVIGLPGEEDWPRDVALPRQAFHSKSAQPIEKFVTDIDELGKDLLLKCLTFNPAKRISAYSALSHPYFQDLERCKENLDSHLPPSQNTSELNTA
T2 sequence (P30279 whole entry partner): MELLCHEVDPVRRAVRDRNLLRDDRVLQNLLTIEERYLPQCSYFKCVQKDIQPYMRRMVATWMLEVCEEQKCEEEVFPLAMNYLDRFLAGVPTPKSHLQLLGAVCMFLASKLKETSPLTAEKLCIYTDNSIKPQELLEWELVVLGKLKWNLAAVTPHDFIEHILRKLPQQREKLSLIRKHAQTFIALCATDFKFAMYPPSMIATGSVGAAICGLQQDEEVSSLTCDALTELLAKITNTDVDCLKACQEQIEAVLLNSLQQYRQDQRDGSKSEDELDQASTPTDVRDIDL
T14 sequence (Q9NYL2 whole entry): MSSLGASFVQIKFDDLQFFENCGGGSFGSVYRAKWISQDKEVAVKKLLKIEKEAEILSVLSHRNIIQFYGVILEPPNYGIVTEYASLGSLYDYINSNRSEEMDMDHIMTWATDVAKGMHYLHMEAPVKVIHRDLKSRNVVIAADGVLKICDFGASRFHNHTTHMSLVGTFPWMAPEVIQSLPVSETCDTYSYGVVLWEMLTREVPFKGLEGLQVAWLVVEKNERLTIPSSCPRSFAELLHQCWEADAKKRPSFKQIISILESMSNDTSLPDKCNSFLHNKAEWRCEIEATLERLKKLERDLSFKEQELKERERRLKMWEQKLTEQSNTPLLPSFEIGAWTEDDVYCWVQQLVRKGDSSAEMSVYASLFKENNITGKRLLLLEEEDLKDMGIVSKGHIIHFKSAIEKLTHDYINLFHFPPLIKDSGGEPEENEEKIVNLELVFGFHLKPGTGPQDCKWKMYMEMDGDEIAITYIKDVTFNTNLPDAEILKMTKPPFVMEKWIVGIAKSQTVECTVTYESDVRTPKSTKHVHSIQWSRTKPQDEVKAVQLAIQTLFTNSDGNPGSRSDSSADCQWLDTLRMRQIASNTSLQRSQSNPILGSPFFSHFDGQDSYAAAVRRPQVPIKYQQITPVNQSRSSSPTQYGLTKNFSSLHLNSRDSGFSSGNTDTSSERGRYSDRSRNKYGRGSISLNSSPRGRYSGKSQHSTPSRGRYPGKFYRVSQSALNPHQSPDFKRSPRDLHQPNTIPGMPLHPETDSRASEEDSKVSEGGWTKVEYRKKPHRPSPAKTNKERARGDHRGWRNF
T8 sequence (Q8N4C8 whole entry): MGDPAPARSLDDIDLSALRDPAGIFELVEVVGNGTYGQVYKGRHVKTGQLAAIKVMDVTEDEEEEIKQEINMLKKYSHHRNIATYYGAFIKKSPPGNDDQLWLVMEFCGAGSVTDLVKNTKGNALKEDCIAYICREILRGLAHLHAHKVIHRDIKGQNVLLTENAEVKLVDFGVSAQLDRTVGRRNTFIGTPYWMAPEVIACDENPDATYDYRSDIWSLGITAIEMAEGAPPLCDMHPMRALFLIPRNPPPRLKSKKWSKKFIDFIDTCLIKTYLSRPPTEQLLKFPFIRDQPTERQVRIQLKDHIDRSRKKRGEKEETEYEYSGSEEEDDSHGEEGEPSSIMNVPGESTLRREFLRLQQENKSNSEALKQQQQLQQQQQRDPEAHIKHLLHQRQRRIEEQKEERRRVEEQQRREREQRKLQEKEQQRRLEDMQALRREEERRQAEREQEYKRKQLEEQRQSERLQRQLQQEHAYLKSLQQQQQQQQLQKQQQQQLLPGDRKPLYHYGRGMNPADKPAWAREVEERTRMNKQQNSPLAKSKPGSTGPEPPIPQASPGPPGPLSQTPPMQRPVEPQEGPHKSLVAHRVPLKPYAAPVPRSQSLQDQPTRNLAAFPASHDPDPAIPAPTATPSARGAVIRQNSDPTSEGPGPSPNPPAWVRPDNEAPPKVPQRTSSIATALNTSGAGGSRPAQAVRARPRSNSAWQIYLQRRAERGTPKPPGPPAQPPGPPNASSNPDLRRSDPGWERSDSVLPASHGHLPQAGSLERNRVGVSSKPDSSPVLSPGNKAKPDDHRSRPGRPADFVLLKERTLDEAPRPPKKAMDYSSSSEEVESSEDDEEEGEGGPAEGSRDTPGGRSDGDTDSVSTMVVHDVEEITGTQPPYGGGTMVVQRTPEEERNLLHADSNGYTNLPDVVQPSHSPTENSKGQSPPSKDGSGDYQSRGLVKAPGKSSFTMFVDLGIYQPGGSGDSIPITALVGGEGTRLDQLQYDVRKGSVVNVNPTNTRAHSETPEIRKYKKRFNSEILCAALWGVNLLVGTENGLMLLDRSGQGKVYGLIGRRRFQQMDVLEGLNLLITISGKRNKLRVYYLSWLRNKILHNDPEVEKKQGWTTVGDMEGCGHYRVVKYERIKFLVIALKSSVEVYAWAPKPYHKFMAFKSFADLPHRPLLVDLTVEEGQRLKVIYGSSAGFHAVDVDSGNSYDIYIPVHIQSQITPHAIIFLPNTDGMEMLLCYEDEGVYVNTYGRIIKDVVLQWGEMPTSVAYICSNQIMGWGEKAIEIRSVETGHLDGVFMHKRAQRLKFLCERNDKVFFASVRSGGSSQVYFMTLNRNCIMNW
T7 sequence (P27448 whole entry): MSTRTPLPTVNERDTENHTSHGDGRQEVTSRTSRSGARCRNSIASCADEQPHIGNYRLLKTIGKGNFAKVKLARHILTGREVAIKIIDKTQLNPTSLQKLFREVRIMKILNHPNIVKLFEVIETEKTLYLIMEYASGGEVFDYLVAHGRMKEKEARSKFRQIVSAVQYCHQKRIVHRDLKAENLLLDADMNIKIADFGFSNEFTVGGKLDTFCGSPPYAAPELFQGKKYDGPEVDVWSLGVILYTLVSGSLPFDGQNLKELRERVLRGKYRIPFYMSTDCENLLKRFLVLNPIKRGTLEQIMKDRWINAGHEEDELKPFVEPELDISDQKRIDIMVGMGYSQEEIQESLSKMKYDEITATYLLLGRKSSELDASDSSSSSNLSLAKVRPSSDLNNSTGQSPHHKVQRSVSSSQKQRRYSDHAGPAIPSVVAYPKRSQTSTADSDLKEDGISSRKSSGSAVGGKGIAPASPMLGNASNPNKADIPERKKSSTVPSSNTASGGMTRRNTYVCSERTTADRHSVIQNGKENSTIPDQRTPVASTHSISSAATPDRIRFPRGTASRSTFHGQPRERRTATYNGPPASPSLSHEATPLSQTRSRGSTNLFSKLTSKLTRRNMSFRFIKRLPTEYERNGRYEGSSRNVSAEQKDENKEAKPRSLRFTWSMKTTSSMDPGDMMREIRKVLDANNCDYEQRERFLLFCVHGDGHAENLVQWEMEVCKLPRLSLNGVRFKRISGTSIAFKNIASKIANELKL
T11 sequence (P07949 29-1114): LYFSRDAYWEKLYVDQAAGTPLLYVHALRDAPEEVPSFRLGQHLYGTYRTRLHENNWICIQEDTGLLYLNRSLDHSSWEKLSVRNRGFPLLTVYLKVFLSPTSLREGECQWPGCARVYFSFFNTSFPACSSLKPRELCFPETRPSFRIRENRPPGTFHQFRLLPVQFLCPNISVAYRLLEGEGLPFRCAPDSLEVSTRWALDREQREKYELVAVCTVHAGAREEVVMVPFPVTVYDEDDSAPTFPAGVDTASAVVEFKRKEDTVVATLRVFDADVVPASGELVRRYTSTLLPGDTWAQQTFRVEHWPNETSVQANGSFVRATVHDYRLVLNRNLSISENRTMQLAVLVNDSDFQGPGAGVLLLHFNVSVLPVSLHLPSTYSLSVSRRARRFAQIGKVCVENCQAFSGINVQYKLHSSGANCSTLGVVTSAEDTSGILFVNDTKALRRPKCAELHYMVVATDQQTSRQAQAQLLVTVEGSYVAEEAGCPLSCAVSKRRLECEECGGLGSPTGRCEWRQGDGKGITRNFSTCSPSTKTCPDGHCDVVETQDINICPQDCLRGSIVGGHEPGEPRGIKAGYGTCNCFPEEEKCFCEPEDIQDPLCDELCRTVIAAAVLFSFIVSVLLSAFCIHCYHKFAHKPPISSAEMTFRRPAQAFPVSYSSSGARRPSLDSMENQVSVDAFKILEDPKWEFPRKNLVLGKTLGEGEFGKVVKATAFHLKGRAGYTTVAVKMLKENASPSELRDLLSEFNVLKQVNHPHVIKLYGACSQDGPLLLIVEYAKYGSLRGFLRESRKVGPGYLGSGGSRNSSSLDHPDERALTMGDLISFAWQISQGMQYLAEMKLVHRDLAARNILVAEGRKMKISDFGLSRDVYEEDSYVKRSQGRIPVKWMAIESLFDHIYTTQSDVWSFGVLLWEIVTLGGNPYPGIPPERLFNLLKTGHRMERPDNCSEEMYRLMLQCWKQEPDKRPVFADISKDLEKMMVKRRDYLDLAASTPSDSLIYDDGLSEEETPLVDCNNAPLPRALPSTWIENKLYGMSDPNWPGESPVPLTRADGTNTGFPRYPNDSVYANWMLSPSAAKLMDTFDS
T13 sequence (O00506 whole entry): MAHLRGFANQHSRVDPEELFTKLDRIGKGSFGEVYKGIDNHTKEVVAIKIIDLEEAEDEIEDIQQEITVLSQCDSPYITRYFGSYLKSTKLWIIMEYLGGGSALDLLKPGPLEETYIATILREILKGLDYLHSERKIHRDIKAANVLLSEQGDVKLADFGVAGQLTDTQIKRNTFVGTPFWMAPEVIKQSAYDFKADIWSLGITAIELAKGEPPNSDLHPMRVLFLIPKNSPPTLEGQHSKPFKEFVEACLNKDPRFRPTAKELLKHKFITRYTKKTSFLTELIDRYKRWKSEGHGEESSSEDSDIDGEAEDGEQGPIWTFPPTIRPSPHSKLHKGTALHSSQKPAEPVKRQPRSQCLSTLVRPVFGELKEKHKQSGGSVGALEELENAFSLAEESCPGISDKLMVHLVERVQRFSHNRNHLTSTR

SMILES | Residual activity ([1]; 1.0E-05 M) | Residual activity ([1]; 1.0E-06 M) | Residual activity ([2]; 1.0E-05 M) | Residual activity ([2]; 1.0E-06 M) | Residual activity ([3]; 1.0E-05 M) | Residual activity ([3]; 1.0E-06 M) | Residual activity ([4]; 1.0E-05 M) | Residual activity ([4]; 1.0E-06 M) | Residual activity ([5]; 1.0E-05 M) | Residual activity ([5]; 1.0E-06 M) | Residual activity ([6]; 1.0E-05 M) | Residual activity ([6]; 1.0E-06 M) | Residual activity ([7]; 1.0E-05 M) | Residual activity ([7]; 1.0E-06 M) | Residual activity ([8]; 1.0E-05 M) | Residual activity ([8]; 1.0E-06 M) | Residual activity ([9]; 1.0E-05 M) | Residual activity ([9]; 1.0E-06 M) | Residual activity ([10]; 1.0E-05 M) | Residual activity ([10]; 1.0E-06 M) | also measured
O=C(Nc1ccc(F)c(Nc2ccc3c(c2)CCCCC3=O)c1)c1cccc(F)c1 [Compound 109] | 89 % of control | 94 % of control | 94 % of control | 105 % of control | 95 % of control | 90 % of control | 82 % of control | 93 % of control | 110 % of control | 108 % of control | 78 % of control | 101 % of control | 105 % of control | 102 % of control | 57 % of control | 86 % of control | 69 % of control | 88 % of control | 96 % of control | 90 % of control | Residual activity ([11]; 1.0E-05 M): 89 % of control; Residual activity ([11]; 1.0E-06 M): 95 % of control; Residual activity ([12]; 1.0E-05 M): 97 % of control; Residual activity ([12]; 1.0E-06 M): 96 % of control; Residual activity ([13]; 1.0E-05 M): 91 % of control; Residual activity ([13]; 1.0E-06 M): 90 % of control; Residual activity ([14]; 1.0E-05 M): 106 % of control; Residual activity ([14]; 1.0E-06 M): 106 % of control
O=C(Cc1ccccc1)Nc1ccc(F)c(Nc2ccc3c(c2)CCCCC3=O)c1 [Compound 100] | 89 % of control | 93 % of control | 97 % of control | 97 % of control | 89 % of control | 91 % of control | 75 % of control | 94 % of control | 118 % of control | 109 % of control | 77 % of control | 121 % of control | 103 % of control | 106 % of control | 73 % of control | 89 % of control | 65 % of control | 88 % of control | 97 % of control | 94 % of control | Residual activity ([11]; 1.0E-05 M): 70 % of control; Residual activity ([11]; 1.0E-06 M): 91 % of control; Residual activity ([12]; 1.0E-05 M): 98 % of control; Residual activity ([12]; 1.0E-06 M): 103 % of control; Residual activity ([13]; 1.0E-05 M): 89 % of control; Residual activity ([13]; 1.0E-06 M): 100 % of control; Residual activity ([14]; 1.0E-05 M): 102 % of control; Residual activity ([14]; 1.0E-06 M): 109 % of control
